Patent US10780094B2, “Use of carbonic anhydrase inhibitors for treatment of neurological and psychiatric disorders” (New York University, priority 2016, dated 2020)

Columns and labels:
D3 cells [1] = test: Mitochondrial and cytoplasmic calcium assay (Rhod-2 AM, Fluo-4 AM); assay type: cell-based, human; conditions: highest doses; 45 minutes
Procedure: This assay was performed as published in [60]. Briefly, cells were plated on 25 mm optical borosilicate poly-L-lysine-coated sterile glass covers, (ThermoFisher, Waltham, Mass., US) at a 70% confluence. 24 hours later, cells were loaded with 5 μM Rhod-2 AM or 2.5 μM Fluo-4 AM on HBSS for 45 minutes. Then, cells were washed twice with HBSS and incubated for another additional 15 minutes on fresh HBSS, without Rhod-2 AM or Fluo-4 AM. After that, HBSS was replaced again by fresh HBSS, glasses were mounted on microscopy chambers and experiments were conducted, after adding the pre-aggregated peptides and/or the drugs. Cells were mounted on Sykes-Moores chambers (BellCo, Vineland, N.J., US) and imaged every 15 seconds for 45 min, at a 20× magnification, using a Nikon fluorescent microscope (Chiyoda, Tokyo, Japan). Images were processed using NIS-Elements and ImageJ software. Due to the rapidity of this experiment, the peptide was pre-aggregated as described above to obtain oligomers before being added to the cells.

SH-SY5Y cells [2] = test: ATP measurement (CellTiter-Glo); assay type: cell-based, human; conditions: drug in combination with the peptide; 3 hours
Procedure: (§1) Steady state levels of ATP were estimated using the Cell Titter-Glo, according to manufacturer's instructions. Briefly, 5×10^3 cells per well of both D3 and SHSY cells were plated on 96-wells plates. The day after, cells were treated with either 10 μM Q22 or 50 μM Ab42 peptides, respectively. Peptides were added alone or in combination with increasing concentrations of MTZ (100 and 300 μM) or AZT (30 and 300 μM). Controls were treated with either DMSO or 5 μM oligomycin. After 3 hours of treatment, the plates containing the cells were equilibrated to room temperature for 30 minutes prior to addition of the luciferin/luciferase/cell lysis mixture. Absolute luminescence from quadruplicate experiments was recorded using a SpectraMax plate reader (Molecular Devices, Sunnyvalem Calif., US).

D3 cells [3] = test: ATP measurement (CellTiter-Glo); assay type: cell-based, human; conditions: co-treatment with the peptide; 3 hours
Procedure: as §1

SH-SY5Y cells [4] = test: Cell Death ELISAplus, Aβ-induced apoptosis (fragmented nucleosomes); assay type: cell-based, human; conditions: for apoptosis in response to Aβ: Example 2/3, Aβ42 challenge, FIG. 17A, 21
Procedure: The extent of apoptosis caused by Aβ in the presence or absence of MTZ was assessed by quantitation of nucleosome formation using Cell Death ELISA^plus (Roche Applied Science, Indianapolis, Ind.). Briefly, after incubation with the peptides, plates were centrifuged in a Beckman J-6B centrifuge (10 min; 1,000 rpm), cells lysed, and DNA-histone complexes (nucleosomes) quantitated by Cell Death ELISA, as previously described (Fossati et al., 2010).
20.000 cells per well were plated on 24-wells plates. The day after, cells were treated with peptides and/or drugs, following the experimental conditions.
20,000 cells per well were plated on 24-wells plates. The day after, cells were treated with peptides and/or drugs, following the experimental conditions.

TgSwDI mice = test: Brain immunostaining and Thioflavin S staining in a model of vascular and parenchymal amyloidosis; assay type: in vivo, mouse; conditions: for Aβ and GFAP staining, dentate gyrus (hippocampus) / GFAP and Aβ staining and their colocalization, cortex / co-localization of Aβ staining with glial cells, dentate gyrus / gliosis and amyloidosis, thalamic region: 16 month-old mice treated for 8 months; for amyloid deposits in the cortex and thalamic region (Thioflavin S) / hippocampal deposition of Amyloid beta (Thioflavin S) / amyloid load in the brain (Thioflavin S): 16 months old, diet 8 months; for amyloid load in the brain (Thioflavin S): 15-20 mg/kg/day
Procedure: The animals were sacrificed by trans-cardiac perfusion (medium flow pump, Fisher Scientific 13-876-2, 10 ml/min flow rate) with PBS for 2 minutes followed by 4% paraphormaldehyde for 5 minutes. Brains were then removed from the skull and postfixed in 4% paraphormaldehyde for 2 h at 4° C. […] Brains were then washed in PBS, assembled in a plastic mold with Tissue-Tek O.C.T. compound (Fisher Scientific), and frozen with a mixture of liquid nitrogen and isopenthanol. Serial cryostat sections of 8 μm thickness were collected on positively charged microscope slides (Fisher Scientific) and stored at −80° C. until further immunohistochemical analysis.
For immunohistochemical staining, slices were warmed to RT for 5′ prior to use, rinsed in PBS and blocked with Mouse on Mouse (MOM) blocking reagent (2 drops in 2.5 ml of PBS, Vector Laboratories, Burlingame, Calif.) for 20 minutes. Incubation with the rabbit monoclonal antibody against active caspase-3 (Cell Signaling Technology) was performed overnight at 4° C. in PBS containing 0.1% triton X-100 and 5 mg/ml BSA. The day after, the sections were washed three times with PBS and incubated in Alexa Fluor 488- or 633-conjugated anti-rabbit IgG (Life Technologies; 1:200 in PBST with 5 mg/ml BSA; 1 h at RT), followed by primary anti-Aβ 6E10 (1:200 in PBS+MOM for 2 hours at RT), and by secondary Alexa Fluor 568 anti-mouse IgG. Finally, the slices were washed and the DNA counterstained with TO-PRO (Life Technologies) 1:1000 for 10 min, or with NeuN green neuronal staining (1:100 in PBS for 1 hour, Millipore, Temecula, Calif.). For staining of active microglial cells, tissue sections were incubated with anti IBA1 goat antibody (Abcam, Cambridge, Mass.) 1:200 in PBS containing 0.1% Triton and 5 mg/ml BSA for 1 hour, followed by Alexa Fluor 488 anti-goat IgG (1 hour). For astrocytes, brain slices were stained with GFAP antibody (Fisher Scientific 1:200).
Total fibrillar Aβ burden (parenchymal and vascular) and CAA burden (Aβ burden in the vasculature) were evaluated separately in sections stained with Thioflavin-S, using methods described previously (Scholtzova et al., J Neurosci 2009, 29: 1846-1854).
After washing, slides were mounted with an aqueous mounting medium (Vector Laboratories). Images were acquired in a Zeiss LSM 510 confocal microscope using 40× or 100× oil lens and processed using Image J and Adobe Photoshop. Images were acquired maintaining constant exposure for all samples across single experiments. For quantifications, stained brain slices corresponding to the injection site area of 3 or more animals were quantified with Image J. The total area of NeuN, caspase 3, Aβ and IBA1 positive cells was quantified and compared between different treatments.

[5] = drugs in diet from 5-6 months of age, sacrificed at 9 months

| SMILES | Aβ-induced decrease in mitochondrial and cytoplasmic Ca2+ (D3 cells [1]) | ATP levels under Aβ challenge (SH-SY5Y cells [2]) | Q22-induced increase in steady state ATP levels (D3 cells [3]) | apoptosis in response to Aβ (SH-SY5Y cells [4]) | Aβ and GFAP staining, dentate gyrus (hippocampus) (TgSwDI mice) | GFAP and Aβ staining and their colocalization, cortex (TgSwDI mice) | co-localization of Aβ staining with glial cells, dentate gyrus (TgSwDI mice) | gliosis and amyloidosis, thalamic region (TgSwDI mice) | amyloid deposits in the cortex and thalamic region (Thioflavin S) (TgSwDI mice) | hippocampal deposition of Amyloid beta (Thioflavin S) (TgSwDI mice) | amyloid load in the brain (Thioflavin S) (TgSwDI mice) | increase in caspase 3 activation induced by Aβ, hippocampus (TgSwDI mice; [5]) | DNA fragmentation after Aβ challenge (SH-SY5Y cells [4]; 100 μM MTZ, Aβ42 10 μM or Aβ40-Q22 50 μM, 1 day) | Aβ-mediated increase in fragmented nucleosomes (SH-SY5Y cells [4]; 300 μM MTZ, Aβ42 10 μM or Aβ40-Q22 50 μM, 1 day) | Aβ deposition, hippocampus (TgSwDI mice; [5]) |
| --- | --- | --- | --- | --- | --- | --- | --- | --- | --- | --- | --- | --- | --- | --- | --- |
| CC(=O)Nc1nnc(S(N)(=O)=O)s1 [ATZ, acetazolamide] | counteract the effect exerted by the peptide | remained unchanged | unaffected | prevented | both Aβ and GFAP were reduced | significant reduction | not co-localized within glial cells | decreased gliosis (green) and amyloidosis (red) | reduced deposition | decrease | reduced | inhibited |  |  |  |
| CC(=O)/N=c1/sc(S(N)(=O)=O)nn1C [MTZ, methazolamide] | counteract the effect exerted by the peptide | remained unchanged | unaffected | prevented | both Aβ and GFAP were reduced | significant reduction | not co-localized within glial cells | decreased gliosis (green) and amyloidosis (red) | reduced deposition | decrease | reduced | inhibited | significantly effective at reducing DNA fragmentation | completely prevented | reduction in Aβ deposition |
